Where two headings read alike, the source gives them in different places.
Tests used:
[1] = system: IL-2 secretion by PBMCs; experiment: IL-2 ELISA in PBMCs; assay type: cell-based, human; details: 24 h
Method: Cryopreserved PBMCs from a single donor were thawed in RPMI-1640 plus 10% FBS. PBMCs were plated at 5×10^4/well in 96-well plates and compound was added with a final concentration of 0.5% DMSO. Plates were incubated for 24 h at 37°C, 5% CO2. Interleukin-2 was quantified using Human IL-2 DuoSet ELISA (R&D Systems, Minneapolis, MN). Raw data were converted to ng/ml IL-2 using a standard curve obtained in parallel.

[2] = Cytotoxicity assay in SupT1 cells (ATP, CellTiter-Glo); assay type: cell-based; details: human; for selectivity ratio at 72 h: read-out: Selective window, CC50 versus EC2X
Method: SupT1 cells were plated at 100,000 per well in 96-well, white-walled plates with serial dilutions of test compound in a total volume of 100 μl RPMI-1640 medium containing 10% FBS and 0.5% DMSO. PBMCs were plated similarly at 50,000 cells/well and stimulated by addition of 40 μg/ml PHA and 80 ng/ml interleukin-2 (IL-2). Cells were incubated for 72 h at 37°C, 5% CO2. ATP was quantified using the CellTiter-Glo Luminescent Cell Viability Assay (Promega, Madison, WI) on a ViewLux microplate imager (Perkin Elmer, Waltham, MA). Percent cytotoxicity was determined relative to vehicle-only treated wells.

[3] = system: NF-κB response element reporter in Jurkat cells; experiment: NF-κB-responsive Fluc reporter in Jurkat cells; assay type: cell-based, human; details: stably-transfected Jurkat cells, 4 h
Description: The vector pGL4.32[luc2P/NF-κB-RE/Hygro] was purchased from Promega (Madison, WI), encoding 5 copies of a NF-κB response element driving expression of synthetic firefly luciferase gene, luc2, including a PEST destabilization sequence. Jurkat cells were transfected with this vector using a Gene Pulser® II (Biorad, Hercules, CA) with a 0.4 cm gap cuvette at 0.2 kV and 960 μF. Cells were allowed to recover for three days in RPMI-1640 with 10% FBS and 1% penicillin/streptomycin before selection with 200 μg/ml Hygromycin B for one month. Pooled, stably-transfected cells were plated at 50,000/well in 96-well plates and treated with test compounds in a final concentration of 0.5% DMSO for 4 h at 37°C. Luciferase activity was determined by adding one volume 2× steadylite plus reagent (Perkin Elmer, Waltham, MA) and reading on a ViewLux microplate imager.

[4] = system: HIV-1 transcription in 24STNLSG cells; experiment: SEAP assay in 24STNLSG cells (latency reactivation); assay type: cell-based; details: 72 h; for Max. fold induction, 24STNLSG: SEAP reporter; for EC2X, 24STNLSG: concentration for 2-fold increase in SEAP activity
Method: SupT1-derived 24STNLSG cells were plated at 100,000 cells/well in black bottom/black walled 96-well plates in 50 μl RPMI-1640 medium (without phenol red) containing 10% FBS. Compound was added in 50 μl of identical medium using three-fold dose-response dilutions, in duplicate. […] TNF-α, a nuclear factor-κB (NF-κB) activator known to induce HIV- expression in cellular models, was used as a positive control. Plates were incubated for 72 h at 37°C, 5% CO2. Plates were then sealed and heated to 65°C for 30 min. Plates were brought to room temperature and 50 μl assay buffer (1 mM MgCl2, 10 mM L-homoarginine, 1 M diethylamine hydrochloride) was added to each well and incubated for 5 min at room temperature. To each well, 50 μl of CSPD Substrate (0.4 mM Ready-to-Use with Sapphire-II Enhancer; Applied Biosystems, Foster City, CA) was added. Plates were incubated for 20 min at room temperature and read on a ViewLux microplate imager (Perkin Elmer, Waltham, MA). Curves were fit by non-linear regression using Prism software (GraphPad, San Diego, CA).

[5] = system: HIV-1 RNA in ACH-2 cells; experiment: HIV activation assay in ACH-2 model of latency (qRT-PCR); assay type: cell-based; details: 24 h; for Induction of HIV-1 transcription in ACH-2 cells (in words): 30 μM, qRT-PCR (Fig 3); for EC10X, ACH-2: concentration for 10-fold increase in HIV-1 RNA by qRT-PCR
Method: ACH-2 cells were maintained in RPMI-1640 medium without phenol red and with 10% FBS at 37°C in a 5% CO2 atmosphere. Cells were plated at 5000/well in 96-well round-bottom plated and test compounds were added in a final concentration of 0.5% DMSO, in duplicate. Cells were incubated for 24 h at 37°C, 5% CO2, then pelleted at 2000 × g for 5 min followed by washing in 0.1 ml PBS. RNA was isolated using Invitrogen PureLink 96 RNA Purification Kit with vacuum manifold per the manufacturer’s instructions, including DNase I treatment. HIV-1 transcripts were detected using TaqMan® RNA-to-CT™ 1-step kit (Applied Biosystems, Foster City, CA) and primers/probe specific to gag (SK38 forward: 5ʹ-[…]-3ʹ; SK39 reverse: 5ʹ-[…]-3ʹ; SK19 probe: 5ʹ-6FAM […] TAMRA-3ʹ) or tat (forward: 5ʹ-[…]-3ʹ; reverse: 5ʹ-[…]-3ʹ; probe: 5ʹ-6FAM […]-3ʹ). GAPDH RNA was monitored in all assays as an endogenous control for selectivity using a pre-developed TaqMan assay reagent (Applied Biosystems, Foster City, CA). RNA was quantified on an Applied Biosystems 7900HT. PCR replicates were performed for each biological replicate. Viral RNA expression was normalized to GAPDH RNA and data are expressed as the change from vehicle-only control wells.

[6] = system: Caco-2 cells; experiment: Caco-2 assay; assay type: in vitro ADME, human; details: 10 μM, 1 h, top to bottom chamber
Method: Caco-2 cells obtained from ATCC were plated on filters of a 24-well Boyden chamber and allowed to replicate for five days. Prior to initiating a study, the integrity of the cell layer was assessed by measuring the transepithelial electrical resistance (TEER) values. […] After 1h, medium was removed from the bottom chamber. After completion of the assay, the integrity of the cell layer was measured by transfer of the fluorescent dye, Lucifer yellow, across the cell layer. Samples taken from the apical chamber at the start of the study and from the basal chamber at the end of the study were assessed for drug levels using LC-MS/MS technology and used to calculate the apparent permeability (Papp).

[7] = system: Epstein-Barr virus (EBV) in Raji cells; experiment: EBV activation assay in Raji cells (BZLF1 qRT-PCR); assay type: cell-based
[8] = system: Kaposi's sarcoma associated herpesvirus (KSHV) in BCP-1 cells; experiment: KSHV activation assay in BCP-1 cells (ORF50 qRT-PCR); assay type: cell-based; details: 24 h, up to 100 μM
[9] = Microsome assay, human liver microsomes; assay type: in vitro ADME
Method: Human and mouse liver microsomes were obtained from XenoTech, LLC (Kansas City, KS). The reaction mixture was composed of liver microsomes (0.5 mg/mL), 20 mM Tris-HCl pH 7.4, 2.5 mM MgCl2, and an NADPH generating system (0.1 mM NADP, 1.2 mM glucose-6-phosphate and 0.3 units/ml glucose-6-phophate dehydrogenase). […] Test compounds were added to the microsome reaction and loss of parent molecule was monitored after 1 h by LC/MS/MS.

[10] = SupT1 cells, ATP quantification, 72 h, read-out: CC50, SupT1

Row | Compound | IL-2 secretion by PBMCs (in words) [1] | CC50 at 72 h [2, 10] | selectivity ratio at 72 h ([2]; SupT1 cells, with regards to respective EC2X (SEAP reporter)) | CC50 at 72 h ([2]; T cells (SupT1) and PBMCs, read-out: CC50 across cytotoxicity assays) | Induction of NF-κB driven reporter (in words) [3] | Max. fold induction, 24STNLSG [4] | Max. fold induction, 24STNLSG ([4]; listed as Cmpd 1) | EC2X, 24STNLSG [4] | Induction of HIV-1 transcription in ACH-2 cells (in words) [5] | EC10X, ACH-2 [5] | Caco-2 Papp [6] | Caco-2 Papp ([6]; listed as compound 1) | Effect on BLZF1 mRNA (EBV) ([7]; Raji cells, 24 h, up to 100 μM) | Effect on ORF50 mRNA (KSHV) [8] | HLM stability (% loss of parent compound at 1 h) [9] | selectivity ratio at 72 h ([2]; SupT1 cells) | Caco-2 Papp ([6]; listed as compound 2) | Effect on BLZF1 mRNA (EBV) [7]
1 | Nc1ccc2[nH]c(-c3ccc(-c4nc5cc(N)ccc5o4)cc3)nc2c1 [Compound 1, 2-(4-(5-amino-1H-benzimidazol-2-yl)phenyl)benzoxazol-5-amine] | neither Compound 1 nor 2 increased secretion of IL-2 | 5.2 ± 1.1 µM | ≥ 3 | 5 to 18 µM | Neither Compound 1 nor Compound 2 induced | up to 80 fold | 80 fold | 1.5 ± 0.7 µM | induced HIV-1 transcription | 0.39 ± 0.12 µM | 38 10^−6 cm/s | 4.8 10^−6 cm/s | little effect | little effect | 57% | – | – | –
2 | Nc1ccc2[nH]c(-c3ccc(-c4nc5ccc(N)cc5o4)cc3)nc2c1 [Compound 2] | neither Compound 1 nor 2 increased secretion of IL-2 | > 100 µM | – | – | Neither Compound 1 nor Compound 2 induced | 76 fold | – | 2.7 ± 2.3 µM | induced HIV-1 transcription | 0.97 ± 0.50 µM | 4.8 10^−6 cm/s | – | – | little effect | 61% | ≥ 3 | 38 10^−6 cm/s | little effect
